In one assay the test system is Oocyte. The experiment in a line: Antagonist activity at GluN1a/GluN2B NMDA receptor (unknown origin) expressed in Xenopus oocytes assessed as inhibition of glycine and (S)-glutamate-induced ion channel activation at 1 uM at -70 mV holding potential by two-electrode voltage clamp method relative to control. Particulars: Homo sapiens. It counts as cell-based. (In general: Two-electrode voltage clamp is typically applied to oocytes expressing channels or transporters.)

Assay [1] can be described thus: Displacement of [3H]ifenprodil from recombinant human GluN1A/GluN2B expressed in mouse L-M(TK-) cell membranes after 120 mins by microbeta scintillation counting method. More on the design: species or system Membrane.
Assay [2] concerns the target T1, Sigma intracellular receptor 2 (Rattus norvegicus, UniProt Q5U3Y7).
T1 sequence (Q5U3Y7 whole entry): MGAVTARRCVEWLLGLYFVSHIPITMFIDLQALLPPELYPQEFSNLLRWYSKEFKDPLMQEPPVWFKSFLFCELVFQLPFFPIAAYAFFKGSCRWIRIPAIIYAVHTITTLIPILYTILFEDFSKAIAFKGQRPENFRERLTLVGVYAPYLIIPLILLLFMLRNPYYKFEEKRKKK
The experiment in a line: Displacement of [3H]-DTG from sigma 2 receptor in rat liver membrane measured after 120 mins by microbeta counting analysis. It counts as cell membranes. A general note: Loss of bound radioactivity is the signal in a displacement assay; it reports binding, not function.

The target in assay [3] is Sigma non-opioid intracellular receptor 1 (Cavia porcellus, UniProt Q60492). Description: Displacement of [3H]-(+)-pentazocine from sigma1 receptor in guinea pig brain cortex membranes measured after 120 mins by scintillation counting method. It counts as cell membranes, Cerebral cortex, Membrane.
Sequence of Sigma non-opioid intracellular receptor 1 (Q60492 whole entry): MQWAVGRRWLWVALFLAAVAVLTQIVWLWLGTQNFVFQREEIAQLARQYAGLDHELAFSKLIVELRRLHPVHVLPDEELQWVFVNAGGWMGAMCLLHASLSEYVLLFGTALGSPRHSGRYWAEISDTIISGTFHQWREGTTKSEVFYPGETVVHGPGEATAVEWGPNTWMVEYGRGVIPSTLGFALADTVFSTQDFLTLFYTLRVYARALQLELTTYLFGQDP

For `O[C@H](CN1[C@@H]2CC[C@H]1C/C(=C\c1ccc(F)cc1)C2)c1ccccc1`, in the assay on Oocyte, the inhibition amounted to 1.7%. For the same molecule, the values for the Ki in assay [1], in assay [2] and in assay [3] were 2.9 nM, 11 nM and 0.45 nM, respectively.
Consider `O[C@@H](CN1[C@@H]2CC[C@H]1C[C@H](Cc1ccccc1)C2)c1ccccc1`, for which the figures for the Ki in assay [1], in assay [2] and in assay [3] were 21 nM, 14 nM and 7 nM, respectively.
Taken in the same sequence, the figures for `O[C@H](CN1[C@@H]2CC[C@H]1C/C(=C/c1ccccc1)C2)c1ccccc1` were 21 nM, 27 nM and 11 nM.
Take `O[C@@H](CN1[C@@H]2CC[C@H]1C/C(=C/c1ccccc1)C2)c1ccc(F)cc1`: the Ki came out at 29 nM in assay [1] and 47 nM in assay [2].
As to `O[C@@H](CN1[C@@H]2CC[C@H]1C[C@@H](Cc1ccccc1)C2)c1ccccc1`, the Ki in assay [1] was 2.1 nM; in assay [2], 9 nM; in assay [3] it was 1.3 nM.
As to `O[C@@H](CN1[C@@H]2CC[C@H]1C[C@@H](Cc1ccc(F)cc1)C2)c1ccccc1`, the inhibition with Oocyte is 8.7%. Moreover, the inhibitory constant (Ki) was found to be 0.7 nM in assay [1], 22 nM in assay [2] and 0.9 nM in assay [3].
With `O[C@H](CN1[C@@H]2CC[C@H]1C[C@@H](Cc1ccc(F)cc1)C2)c1ccccc1`, the inhibition in the assay with Oocyte was determined as 2.3%. The results for the inhibition constant Ki in assay [1], in assay [2] and in assay [3] were 17 nM, 19 nM and 2.6 nM, respectively.
As for `O[C@@H](CN1[C@@H]2CC[C@H]1C[C@H](Cc1ccc(F)cc1)C2)c1ccc(F)cc1`, the values for the Ki in assay [1], in assay [2] and in assay [3] were 5.9 nM, 15 nM and 25 nM, respectively.
For the molecule `O[C@@H](CN1[C@@H]2CC[C@H]1C/C(=C/c1ccccc1)C2)c1ccccc1`, the Ki was 34 nM in assay [1], 101 nM in assay [2] and 6 nM in assay [3].
For `O[C@H](CN1[C@@H]2CC[C@H]1C/C(=C/c1ccc(F)cc1)C2)c1ccccc1`, the inhibition with Oocyte amounted to 1.5%. In addition, the figures for the Ki in assay [1], in assay [2] and in assay [3] were 9.3 nM, 27 nM and 6.6 nM, respectively.
`O[C@@H](CN1[C@@H]2CC[C@H]1C/C(=C\c1ccc(F)cc1)C2)c1ccc(F)cc1`: the Ki in assay [1] stood at 1 nM; in assay [2], 15 nM; in assay [3], 0.9 nM.
Consider `O[C@@H](CN1[C@@H]2CC[C@H]1C/C(=C/c1ccc(Cl)cc1)C2)c1ccccc1`, for which the inhibitory constant (Ki) stood at 13 nM in assay [1], 22 nM in assay [2] and 18 nM in assay [3].
The corresponding values for `O[C@H](CN1[C@@H]2CC[C@H]1C/C(=C/c1ccc(Cl)cc1)C2)c1ccccc1` are 20 nM, 47 nM and 9 nM.
As for `O[C@@H](CN1[C@@H]2CC[C@H]1C[C@H](Cc1ccccc1)C2)c1ccc(F)cc1`, the Ki in assay [1] was determined as 5.2 nM; in assay [2], 10 nM; in assay [3], 6.7 nM.
On to `O[C@H](CN1[C@@H]2CC[C@H]1C[C@@H](Cc1ccccc1)C2)c1ccccc1`, for which the Ki was found to be 15 nM in assay [1], 10 nM in assay [2] and 4.5 nM in assay [3].
Taken in the same sequence, the figures for `O[C@H](CN1[C@@H]2CC[C@H]1C[C@H](Cc1ccccc1)C2)c1ccccc1` (mixture of isomers) were 2.4 nM, 11 nM and 1.9 nM.
With `O[C@@H](CN1[C@@H]2CC[C@H]1C/C(=C\c1ccc(Cl)cc1)C2)c1ccccc1`, the inhibitory constant (Ki) turned out to be 4.4 nM in assay [1], 15 nM in assay [2] and 2.7 nM in assay [3].
On to `O[C@H](CN1[C@@H]2CC[C@H]1C/C(=C\c1ccccc1)C2)c1ccccc1`, for which the values for the Ki in assay [1], in assay [2] and in assay [3] were 1.8 nM, 12 nM and 0.8 nM, respectively.
As to `OC(CN1CCC(Cc2ccc(F)cc2)CC1)c1ccc(Cl)cc1` (stereo not drawn) [ELIPRODIL], the Ki in assay [1] is 13 nM.
For `O[C@@H](CN1[C@@H]2CC[C@H]1C[C@@H](Cc1ccccc1)C2)c1ccc(F)cc1`, the values for the Ki in assay [1], in assay [2] and in assay [3] were 1.7 nM, 6 nM and 0.7 nM, respectively.
For `O[C@H](CN1[C@@H]2CC[C@H]1C/C(=C\c1ccc(Cl)cc1)C2)c1ccccc1`, the Ki in assay [1] is 4.4 nM; in assay [2] it was 30 nM; in assay [3], 1.9 nM.
With `C[C@H]([C@H](O)c1ccc(O)cc1)N1CCC(Cc2ccccc2)CC1`, the Ki in assay [1] was 5.8 nM.
On to `O[C@@H](CN1[C@@H]2CC[C@H]1C[C@H](Cc1ccc(F)cc1)C2)c1ccccc1`, for which the inhibition with Oocyte came out at 5.4%. In addition, the values for the Ki in assay [1], in assay [2] and in assay [3] were 17 nM, 23 nM and 7 nM, respectively.
Turning to `O[C@@H](CN1[C@@H]2CC[C@H]1C/C(=C/c1ccc(F)cc1)C2)c1ccccc1`, the inhibition in the assay on Oocyte is -0.9%. Also, in assay [1], the Ki stood at 16 nM.
On to `O[C@@H](CN1[C@@H]2CC[C@H]1C/C(=C\c1ccc(F)cc1)C2)c1ccccc1`, for which the inhibition in the assay on Oocyte turned out to be 1.3%. For the same molecule, the Ki in assay [1] is 3 nM.
`O[C@@H](CN1[C@@H]2CC[C@H]1C/C(=C\c1ccccc1)C2)c1ccc(F)cc1`: the figures for the Ki in assay [1] and in assay [2] were 1.4 nM and 11 nM, respectively.
For the molecule `O[C@@H](CN1[C@@H]2CC[C@H]1C/C(=C/c1ccc(F)cc1)C2)c1ccc(F)cc1`, the inhibitory constant (Ki) in assay [1] came to 7 nM; in assay [2] it was 21 nM; in assay [3] it was 28 nM.
For the molecule `O[C@@H](CN1[C@@H]2CC[C@H]1C[C@@H](Cc1ccc(F)cc1)C2)c1ccc(F)cc1`, the Ki in assay [1] was found to be 0.8 nM; in assay [2] it was 5.9 nM; in assay [3] it was 1.2 nM.
`O[C@@H](CN1[C@@H]2CC[C@H]1C/C(=C\c1ccccc1)C2)c1ccccc1`: the Ki was found to be 1.1 nM in assay [1], 6.6 nM in assay [2] and 0.3 nM in assay [3].
On to `O[C@H](CN1[C@@H]2CC[C@H]1C[C@H](Cc1ccc(F)cc1)C2)c1ccccc1`, for which the inhibition in the assay on Oocyte stood at 3.1%. Besides, the results for the Ki in assay [1], in assay [2] and in assay [3] were 1.9 nM, 11 nM and 2.1 nM, respectively.

One may read the inhibition as the relative decrease from the control value, in per cent. Broadly, the Ki is a measure of affinity in units of concentration, obtained from inhibition or displacement.

Values taken from ChEMBL document CHEMBL5120837, “Synthesis and biological evaluation of conformationally restricted GluN2B ligands derived from eliprodil” (Eur J Med Chem, 2022).
